From patent US6555547B1, “Method for treating a patient with neoplasia by treatment with a vinca alkaloid derivative” (Cell Pathways, Inc., priority 2000, dated 2003)
Read-outs that look alike come from different tables or passages of the source. Blank lines part the entries; values can stand above or below the compound they belong to.

How the values were obtained:
[1] = biological target: T1, novel cGMP-specific PDE Peak B (Section IIB) from SW480 cells (Homo sapiens, UniProt O00408); assay: Inhibition of cGMP hydrolysis by novel PDE Peak B from SW480; assay type: biochemical
T1 construct: IC50 Peak B (μM); native enzyme

[2] = test system: cGMP and cAMP in HT-29 cells; assay: Cyclic nucleotide levels in HT-29 cells by radioimmunoassay; assay type: cell-based, human; settings: HT-29 cells treated 30 minutes
[3] = biological target: T2, cGMP binding sites of GST-cGB-PDE5 fusion protein (Homo sapiens, UniProt O76074); assay: cGMP binding assay; settings: for Competition with cGMP for binding of GST-cGB-PDE5 at high concentration: 100 μM, cGMP 2 μM
T2 construct: made in house; host or cells: E. coli BL21 (DE3)

[4] = test system: Calu-6 adenocarcinoma cell line; assay: Cell growth, alone and in combination with vinca alkaloid; assay type: cell-based, human; settings: Calu-6, 1-hour exposure, 0.01 mcg/ml
Description: Exisulind and Compound I were analyzed using two human lung cancer cell lines; H460, a large cell carcinoma with a doubling time of 16 hours, and Calu-6, an adenocarcinoma with a doubling time of 21 hours. Exisulind and Compound I were analyzed alone and in combination with the vinca alkaloid, Navelbine™ vinorelbine. The cytotoxic agents were administered for 1 hour, while exisulind and Compound I were administered for either 1 hour or given as a continuous exposure.
Cells were plated on day 0 and allowed to attach. On day 1, the cells were exposed to one of the cytotoxic agents dissolved in media pre-warmed to 37° C. and incubated at 37° C. for 1 hour. The cells were then washed twice and re-fed pre-warned media with or without either exisulind or Compound I and incubated for one hour at 37° C. After the one-hour incubation, the cells were washed twice, re-fed, and returned to the incubator; the continuous exposure cultures were not washed and re-fed. Appropriate controls were included for each condition. […] All data points were done in triplicate and the mean graphed as a percent of control growth.
Exisulind and Compound I were first dissolved in DMSO and brought to the desired concentrations by slowly adding warm media to the drug-DMSO solution to prevent precipitation.

HT-29 cells [5] = assay: Apoptosis and necrosis, morphological (acridine orange/ethidium bromide); assay type: cell-based, human; settings: HT-29, treated 6 days
From the text: Following treatment with a compound, cultures can be assayed for apoptosis and necrosis by florescent microscopy following labeling with acridine orange and ethidium bromide. The method for measuring apoptotic cell number has previously been described by Duke & Cohen, “Morphological And Biochemical Assays Of Apoptosis,” Current Protocols In Immunology, Coligan et al., eds., 3.17.1-3.17.16 (1992), which is incorporated herein by reference.
For example, floating and attached cells can be collected by trypsinization and washed three times in PBS. Aliquots of cells can be centrifuged. The pellet can then be re-suspended in media and a dye mixture containing acridine orange and ethidium bromide prepared in PBS and mixed gently. The mixture can then be placed on a microscope slide and examined for morphological features of apoptosis.
Reference compounds and test compounds were analyzed for their novel PDE inhibitory activity in accordance with the protocols for the assay, supra. […] Apoptotic and necrotic cell death was determined previously (Duke and Cohen, In: Current Protocols in Immunology, 3.17.1-3.17.16, New York, John Wiley and Sons, 1992). […]
The apoptosis inducing activity for a series of phosphodiesterase inhibitors was determined. […] Apoptosis and necrosis were determined morphologically after acridine orange and ethidium bromide labeling in accordance with the assay described, supra.

HT-29 cells [6] = assay: Growth inhibition assay, SRB; assay type: cell-based, human
[7] = biological target: T3, PDE Peak A (PDE5) from SW480 cells (Homo sapiens, UniProt O76074); assay: Inhibition of cGMP hydrolysis by PDE Peak A from SW480; assay type: biochemical
T3 construct: endogenous in cells; host or cells: SW480 colon cancer cells; DEAE-Trisacryl M fraction of the 105,000 g supernatant

[8] = test system: novel cGMP-specific PDE Peak B (Section IIB) from SW480 cells; assay: Inhibition of cGMP hydrolysis by novel PDE Peak B from SW480; assay type: biochemical, human
[9] = test system: premalignant lesions in mouse mammary gland organ culture; assay: Mammary gland organ culture model
From the text: Test compounds identified by the above methods can be tested for antineoplastic activity by their ability to inhibit the incidence of pre-neoplastic lesions in a mammary gland organ culture system. This mouse mammary gland organ culture technique has been successfully used by other investigators to study the effects of known antineoplastic agents such as certain NSAIDs, retinoids, tamoxifen, selenium, and certain natural products, and is useful for validation of the screening method of the present invention.
For example, female BALB/c mice can be treated with a combination of estradiol and progesterone daily, in order to prime the glands to be responsive to hormones in vitro. The animals are sacrificed, and thoracic mammary glands are excised aseptically and incubated for ten days in growth media supplemented with insulin, prolactin, hydrocortisone, and aldosterone. DMBA (7,12-dimethylbenz(a)anthracene) is added to medium to induce the formation of premalignant lesions. […]
The extent of the area occupied by the mammary lesions can be quantitated by projecting an image of the gland onto a digitation pad. […] The space covered by each of the non-regressed structures is also outlined on the digitization pad and quantitated by the computer. […]

T1 sequence (O00408 whole entry): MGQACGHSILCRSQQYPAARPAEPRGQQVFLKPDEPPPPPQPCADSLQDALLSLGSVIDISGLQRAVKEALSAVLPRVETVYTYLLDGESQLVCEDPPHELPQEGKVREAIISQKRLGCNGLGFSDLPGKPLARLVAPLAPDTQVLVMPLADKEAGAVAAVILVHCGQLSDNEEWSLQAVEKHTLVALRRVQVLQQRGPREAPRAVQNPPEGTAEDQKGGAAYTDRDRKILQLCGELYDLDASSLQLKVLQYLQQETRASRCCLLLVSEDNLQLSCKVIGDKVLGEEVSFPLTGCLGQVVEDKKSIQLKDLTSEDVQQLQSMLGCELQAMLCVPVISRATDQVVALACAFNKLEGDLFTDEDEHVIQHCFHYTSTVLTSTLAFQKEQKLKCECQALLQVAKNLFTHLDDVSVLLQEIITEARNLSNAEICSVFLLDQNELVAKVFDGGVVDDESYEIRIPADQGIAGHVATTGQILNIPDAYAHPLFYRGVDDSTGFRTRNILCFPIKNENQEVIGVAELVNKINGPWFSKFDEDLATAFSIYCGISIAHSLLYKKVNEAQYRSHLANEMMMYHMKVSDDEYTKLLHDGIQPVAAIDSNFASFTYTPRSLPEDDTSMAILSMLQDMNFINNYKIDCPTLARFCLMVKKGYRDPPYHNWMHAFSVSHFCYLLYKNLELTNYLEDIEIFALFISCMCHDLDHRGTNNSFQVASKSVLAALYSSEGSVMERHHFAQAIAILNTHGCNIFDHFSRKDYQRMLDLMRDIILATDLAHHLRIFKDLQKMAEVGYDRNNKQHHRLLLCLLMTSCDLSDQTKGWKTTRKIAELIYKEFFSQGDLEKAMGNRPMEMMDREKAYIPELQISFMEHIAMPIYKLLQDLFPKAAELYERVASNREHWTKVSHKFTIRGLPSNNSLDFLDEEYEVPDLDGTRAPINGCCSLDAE

Compound: COc1ccc(C2CNC(=O)C2)cc1OC1CCCC1 (stereo not shown) [Rolipram]
IC50 [1]: > 100 µM
Levels of cAMP [2]: increased cAMP

Competition with cGMP for binding of GST-cGB-PDE5 ([3]; 3H-cGMP 2 μM): did not compete with cGMP in binding
Compound: Nc1ccn([C@@H]2O[C@@H]3COP(=O)(O)O[C@H]3[C@H]2O)c(=O)n1 [cCMP, cyclic CMP]

Competition with cGMP for binding of GST-cGB-PDE5 at high concentration [3]: can partially compete with cGMP
Compound: O=c1[nH]cnc2c1ncn2[C@@H]1O[C@@H]2COP(=O)(O)O[C@H]2[C@H]1O [Cyclic IMP]

Compound: CCCOc1ccccc1-c1nc2nn[nH]c2c(=O)[nH]1 [Zaprinast, zaprinast]
Competition with cGMP for binding of GST-cGB-PDE5 ([3]; 3H-cGMP 2 μM): do not bind to the cGMP binding sites of PDE5

Compound: CCOC(=O)C1=C[C@]2(CC)CCCN3CCc4c(n1c1ccccc41)[C@@H]32 [Vinpocetine]
IC50 [1]: > 100 µM

Compound: CCC1=C[C@@H]2CN(C1)Cc1c([nH]c3ccccc13)[C@@](C(=O)OC)(c1cc3c(cc1OC)N(C)[C@H]1[C@@](O)(C(=O)OC)[C@H](OC(C)=O)[C@]4(CC)C=CCN5CC[C@]31[C@@H]54)C2 [vinca alkaloid, vinorelbine]
% of control growth [4]: 52%
activity at 0.01 µg/mL ([4]; Homo sapiens, Calu-6, 1 h, read-out: % of control growth): 56%

Compound: COc1cc(C=C2C(C)=C(CC(=O)O)c3cc(F)ccc32)cc(OC)c1OC [Compound B, (Z)-5-Fluoro-2-methyl-1-(3,4,5-trimethoxybenzylidene)-3-acetic acid]
Competition with cGMP for binding of GST-cGB-PDE5 ([3]; 3H-cGMP 2 μM): do not bind to the cGMP binding sites of PDE5

Compound: Nc1ncnc2c1ncn2[C@@H]1O[C@@H]2COP(=O)(O)O[C@H]2[C@H]1O [Cyclic AMP]
Competition with cGMP for binding of GST-cGB-PDE5 [3]: did not compete with cGMP in binding

Competition with cGMP for binding of GST-cGB-PDE5 ([3]; 3H-cGMP 2 μM): did not compete with cGMP in binding
Compound: CCCCOC1C2OP(=O)(O)OCC2OC1n1cnc2c(=O)[nH]c(N)nc21 (stereo not shown) [2′-O-butyl-cGMP]

IC50 (HT-29 cells [6]; HT-29, 6 days, SRB assay): > 200 µM
Compound: COCc1nc2c([nH]1)c(=O)n(C)c(=O)n2CC(C)C [8-methoxy-IBMX]
% Apoptosis (HT-29 cells [5]): 2%
% Necrosis (HT-29 cells [5]): 1%

Competition with cGMP for binding of GST-cGB-PDE5 ([3]; 3H-cGMP 2 μM): did not compete with cGMP in binding
Compound: CCCCOC1C2OP(=O)(O)OCC2OC1n1cnc2c(N)ncnc21 (stereo not shown) [2′-O-butyl-cAMP]

IC50 [1]: 0.37 µM
Ratio (IC50 PeakA/Peak B) [8]: 1.0
Compound: COc1cc(/C=C2/C(C)=C(CC(=O)NCc3ccccc3)c3cc(F)ccc32)cc(OC)c1OC [Compound E, (Z)-5-Fluoro-2-methyl-1-(3,4,5-trimethoxybenzylidene)-3-indenylacetamide, N-benzyl]
Competition with cGMP for binding of GST-cGB-PDE5 ([3]; 3H-cGMP 2 μM): do not bind to the cGMP binding sites of PDE5
Competitive (with cGMP) binding/inhibition, Peak A [7]: does competitively (with cGMP) bind to PDE 5 (i.e., Peak A)
Competitive (with cGMP) binding/inhibition, Peak B [1]: also competitively (with cGMP) binds to PDE Peak B

Competition with cGMP for binding of GST-cGB-PDE5 at high concentration [3]: can partially compete with cGMP
Compound: Nc1nc2c(nc(Br)n2[C@@H]2O[C@@H]3COP(=O)(O)O[C@H]3[C@H]2O)c(=O)[nH]1 [Compound 8-bromo-cGMP, 8-bromo-cGMP]

Compound: CC1(C)C(=O)Nc2ccc(C3=NNC(=O)CC3)cc21 [Indolidan]
IC50 [1]: > 100 µM
Ratio (IC50 PeakA/Peak B) [8]: <0.31

Compound: 5-fluoro-2-methyl-1-(p-methylsulfinylbenzylidene)-3-indenylacetic acid [Sulindac sulfide]
Inhibition of premalignant lesions in mammary gland organ culture [9]: inactive
Growth inhibition and apoptosis time course (HT-29 cells [6]; HT-29, 120 μM, viable cells by trypan blue, apoptosis morphological): capable of inhibiting tumor cell growth, and that the effect is accompanied by an increase in apoptosis
Competition with cGMP for binding of GST-cGB-PDE5 ([3]; 3H-cGMP 2 μM): do not bind to the cGMP binding sites of PDE5
Competitive (with cGMP) binding/inhibition, Peak A [7]: competitively inhibited both Peaks A and B phosphodiesterases at the same potency
Increase in levels of cGMP [2]: greater than 50%
Levels of cAMP [2]: unaffected

Compound: CCCc1nn(C)c2c(=O)[nH]c(-c3cc(S(=O)(=O)N4CCN(C)CC4)ccc3OCC)nc12 [Sildenafil, sildenafil]
Inhibition of Peak A activity [7]: inhibited activity of Peak A

Competition with cGMP for binding of GST-cGB-PDE5 ([3]; 3H-cGMP 2 μM): did not compete with cGMP in binding
Compound: O=c1ccn([C@@H]2O[C@@H]3COP(=O)(O)O[C@H]3[C@H]2O)c(=O)[nH]1 [cUMP, cyclic UMP]
